This passage reports IC50 results from US20170152239A1, “BENZAMIDE AND HETEROBENZAMIDE COMPOUNDS” (PFIZER INC., priority 2012, published 2017).

In assay [1] the target is EZH2PRC2 mutant Y641N (Homo sapiens, UniProt Q15910, Y641N). Briefly: EZH2PRC2 mutant Y641N nucleosome assay. Format: biochemical. To be noted: read-out: EZH2PCR2 Mutant Y641N IC50. Here is the method: Nucleosome Assay Protocol:
A. Compound preparation • 1. Prepare 10 mM stock solutions in 100% DMSO from solid material • 2. Serial dilute 10 mM compound stocks either 2 or 3-fold in 100% DMSO to generate compounds for 11 point dose response
B. Reagent preparation • 1. Prepare 1× assay buffer containing 100 mM Tris pH 8.5, 4 mM DTT and 0.01% Tween-20 • 2. Dilute purified HeLA oligonucleosomes and recombinant histone H1 (New England Biolabs) in assay buffer to 1.67×. • 3. Dilute EZH2 4 protein complex (EZH2, EED, SUZ12, RbAp48) to 3.5× in assay buffer • 4. Prepare 10×^3H SAM solution in assay buffer using 0.94 μCi/well of radioactive SAM (Perkin Elmer) and sufficient non-labeled SAM (Sigma) for 1.5 μM final concentration. • 5. Dilute TCA to 20% in DI water
C. Enzyme reaction • 1. Final reaction conditions are 5 nM EZH2 4-protein complex, 1.5 μM SAM, 25 μg/mL oligonucleosomes, 50 nM rH1 in a 50 μl reaction volume. • 2. Add 1 μl of diluted compound to the assay plate (96-well V-bottom polypropylene plates) or 1 μl of DMSO for control wells. • 3. Add 30 μl of nucleosomes to the assay plate • 4. Add 14 μl of EZH2 4 protein complex to the assay plate • 5. Add 5 μl of ^3H SAM to start the reaction. • 6. Stop the reaction after 60 minutes with the addition of 100 μl of 20% TCA • 7. Transfer 150 μl of quenched reaction into a prepared filterplate (Millipore #MSIPN4B10) • 8. Apply vacuum to the filterplate to filter the reaction mix through the membrane. • 9. Wash the filterplate with 8×200 μl of PBS, blot dry and dry in an oven for 30 minutes • 10. Add 50 μl of microscint-20 scintillation fluid (Perkin Elmer) to each well, wait 30 minutes and count on a liquid scintillation counter.
D. Data analysis • 1. IC50 values were determined by fitting the data to a 4-parameter IC50 equation using proprietary curve fitting software.
Wild type (WT) EZH2% Effect at 20 μM and IC50 values (μM) generated in WT EZH2 or EZH2PRC2 mutant Y641N nucleosome assays are provided in Table 3 below. A blank entry in the table indicates the data was not generated in that assay.

Assay [2] has as its target WT EZH2 (EZH2 4 protein complex: EZH2, EED, SUZ12, RbAp48) (Homo sapiens, UniProt O75530+Q09028+Q15022+Q15910). Briefly: WT EZH2 nucleosome assay. Format: biochemical. The procedure, abridged:
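Radiometric methyltransferase assay: 5 nM EZH2 four-protein complex, 1.5 μM 3H-SAM, 25 μg/mL HeLa oligonucleosomes, 50 nM recombinant H1 in 100 mM Tris pH 8.5, 4 mM DTT, 0.01% Tween-20. 60 min reaction, TCA quench, filter capture, scintillation counting; IC50 from 11-point 4-parameter fit; % effect at 20 μM.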

Setting [3] is: nucleosome assay, 5 nM EZH2 4-protein complex, 1.5 μM SAM, read-out: WT EZH2 IC50.

Like-named read-outs stand apart in the source and are kept apart here.

EZH2PRC2 mutant Y641N, sequence (Q15910 whole entry Y641N): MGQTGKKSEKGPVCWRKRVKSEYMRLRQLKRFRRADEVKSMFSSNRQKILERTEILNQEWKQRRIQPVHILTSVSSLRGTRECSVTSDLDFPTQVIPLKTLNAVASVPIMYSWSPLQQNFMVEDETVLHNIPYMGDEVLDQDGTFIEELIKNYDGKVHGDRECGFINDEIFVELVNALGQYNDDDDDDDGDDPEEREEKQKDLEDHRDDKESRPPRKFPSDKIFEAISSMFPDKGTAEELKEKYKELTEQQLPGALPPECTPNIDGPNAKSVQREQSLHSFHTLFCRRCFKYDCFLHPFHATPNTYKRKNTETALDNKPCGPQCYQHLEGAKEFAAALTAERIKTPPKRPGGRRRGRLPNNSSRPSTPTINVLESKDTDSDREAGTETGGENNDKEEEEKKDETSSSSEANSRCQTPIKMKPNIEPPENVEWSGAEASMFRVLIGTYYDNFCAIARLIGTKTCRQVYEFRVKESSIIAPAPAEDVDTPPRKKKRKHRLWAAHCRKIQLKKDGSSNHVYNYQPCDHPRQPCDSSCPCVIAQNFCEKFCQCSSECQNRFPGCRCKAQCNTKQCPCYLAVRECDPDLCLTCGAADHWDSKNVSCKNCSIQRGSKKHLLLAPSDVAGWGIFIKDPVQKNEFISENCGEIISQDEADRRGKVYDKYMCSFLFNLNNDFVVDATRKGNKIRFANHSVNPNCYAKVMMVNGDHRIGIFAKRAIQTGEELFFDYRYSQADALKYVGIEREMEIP
EZH2PRC2 mutant Y641N, sequence (O75530 whole entry partner): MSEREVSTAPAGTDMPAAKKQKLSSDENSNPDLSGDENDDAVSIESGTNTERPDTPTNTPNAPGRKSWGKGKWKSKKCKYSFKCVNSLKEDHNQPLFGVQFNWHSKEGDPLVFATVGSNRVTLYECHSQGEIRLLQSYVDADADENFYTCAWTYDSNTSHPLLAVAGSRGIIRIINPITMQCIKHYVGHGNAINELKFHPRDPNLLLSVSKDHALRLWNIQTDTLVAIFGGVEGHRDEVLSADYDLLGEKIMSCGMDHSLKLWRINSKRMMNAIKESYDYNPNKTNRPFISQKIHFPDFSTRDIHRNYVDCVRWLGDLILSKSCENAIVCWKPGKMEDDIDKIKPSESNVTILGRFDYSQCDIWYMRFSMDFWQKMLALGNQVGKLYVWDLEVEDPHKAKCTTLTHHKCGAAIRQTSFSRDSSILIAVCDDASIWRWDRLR
EZH2PRC2 mutant Y641N, sequence (Q15022 whole entry partner): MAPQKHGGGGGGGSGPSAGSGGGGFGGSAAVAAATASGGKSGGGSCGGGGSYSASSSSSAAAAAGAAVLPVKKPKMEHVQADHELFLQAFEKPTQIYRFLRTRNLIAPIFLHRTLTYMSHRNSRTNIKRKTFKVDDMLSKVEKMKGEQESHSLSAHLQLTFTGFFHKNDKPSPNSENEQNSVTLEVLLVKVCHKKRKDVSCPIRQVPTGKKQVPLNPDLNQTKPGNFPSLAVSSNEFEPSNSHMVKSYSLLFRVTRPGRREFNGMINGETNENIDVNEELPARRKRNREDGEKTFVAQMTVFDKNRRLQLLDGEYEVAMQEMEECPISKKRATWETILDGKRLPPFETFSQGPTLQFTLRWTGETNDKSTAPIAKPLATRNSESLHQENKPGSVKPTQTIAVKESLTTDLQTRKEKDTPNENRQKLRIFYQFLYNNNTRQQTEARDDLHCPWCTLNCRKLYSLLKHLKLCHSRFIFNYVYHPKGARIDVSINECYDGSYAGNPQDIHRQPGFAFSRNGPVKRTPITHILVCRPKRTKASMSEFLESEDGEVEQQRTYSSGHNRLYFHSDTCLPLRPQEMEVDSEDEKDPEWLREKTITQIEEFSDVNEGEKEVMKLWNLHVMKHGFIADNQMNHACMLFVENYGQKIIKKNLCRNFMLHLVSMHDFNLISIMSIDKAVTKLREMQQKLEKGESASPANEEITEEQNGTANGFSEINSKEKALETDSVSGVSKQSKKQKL
EZH2PRC2 mutant Y641N, sequence (Q09028 whole entry partner): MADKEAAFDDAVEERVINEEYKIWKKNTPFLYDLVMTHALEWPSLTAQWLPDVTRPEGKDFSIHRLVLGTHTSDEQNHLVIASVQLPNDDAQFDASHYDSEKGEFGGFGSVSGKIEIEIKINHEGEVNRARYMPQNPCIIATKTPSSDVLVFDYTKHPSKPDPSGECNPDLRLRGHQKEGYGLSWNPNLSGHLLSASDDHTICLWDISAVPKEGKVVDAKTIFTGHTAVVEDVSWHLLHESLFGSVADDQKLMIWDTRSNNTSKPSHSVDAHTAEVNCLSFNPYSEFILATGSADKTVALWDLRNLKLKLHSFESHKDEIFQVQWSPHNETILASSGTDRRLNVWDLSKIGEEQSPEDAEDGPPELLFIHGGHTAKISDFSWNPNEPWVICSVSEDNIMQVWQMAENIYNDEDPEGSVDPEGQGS
WT EZH2 (EZH2 4 protein complex: EZH2, EED, SUZ12, RbAp48), sequence (Q15910 whole entry): as the sequence (Q15910 whole entry Y641N) above, with N641Y counted along it
WT EZH2 (EZH2 4 protein complex: EZH2, EED, SUZ12, RbAp48), sequence (O75530 whole entry partner): as the sequence (O75530 whole entry partner) above
WT EZH2 (EZH2 4 protein complex: EZH2, EED, SUZ12, RbAp48), sequence (Q15022 whole entry partner): as the sequence (Q15022 whole entry partner) above
WT EZH2 (EZH2 4 protein complex: EZH2, EED, SUZ12, RbAp48), sequence (Q09028 whole entry partner): as the sequence (Q09028 whole entry partner) above

For `Cc1cc(C)c(CNC(=O)c2cc(-c3ccc(CN4CCOCC4)cc3)cc(-c3ccnn3C)c2C)c(=O)[nH]1` [Example 150, N-[(4,6-dimethyl-2-oxo-1,2-dihydropyridin-3-yl)methyl]-4-methyl-5-(1-methyl-1H-pyrazol-5-yl)-4′-(morpholin-4-ylmethyl)bi-phenyl-3-carboxamide], the IC50 (usually the concentration that gives 50% inhibition) in assay [1] was found to be 0.679 µM; in assay [2] (setting [3]), 0.113 µM.

For `COc1cccc(C(=O)NCc2c(C)cc(C)[nH]c2=O)c1C` [Example 60, N-[(4,6-dimethyl-2-oxo-1,2-dihydropyridin-3-yl)methyl]-3-methoxy-2-methylbenz-amide], the IC50 was 50.4 µM in assay [1] and 3.98 µM in assay [2] (setting [3]).

On to `CC(=O)N1C2CCC1c1cc(-c3cc(C(=O)NCc4c(C)cc(C)[nH]c4=O)c(C)c(-c4ccnn4C)c3)ccc12` (stereo not drawn) [Example 6, 5-[9-acetyl-1,2,3,4-tetrahydro-1,4-epiminonaphthalene-6-yl]-N-[(4,6-dimethyl-2-oxo-1,2-dihydropyridin-3-yl)methyl]-2-methyl-3-(1-methyl-1H-pyrazol-5-yl)benzamide], for which the IC50 was 0.82 µM in assay [1] and 0.022 µM in assay [2] (setting [3]).

For `CNc1ncc(-c2cc(C(=O)NCc3c(C)cc(C)[nH]c3=O)c(C)c(-c3ccnn3C)c2)cn1` [Example 14, N-[(4,6-dimethyl-2-oxo-1,2-dihydropyridin-3-yl)methyl]-2-methyl-5-[2-(methylamino)pyrimidin-5-yl]-3-(1-methyl-1H-pyrazol-5-yl)benzamide], the IC50 in assay [1] is 0.64 µM; in assay [2] (setting [3]), 0.027 µM.

For `Cc1cc(C)c(CNC(=O)c2nc(Cl)nc(N3CCN(C)C[C@@H]3C)c2C)c(=O)[nH]1` [Example 36, 2-chloro-N-[(4,6-dimethyl-2-oxo-1,2-dihydropyridin-3-yl)methyl]-6-[(2S)-2,4-dimethylpiperazin-1-yl]-5-methylpyrimidine-4-carboxamide], the IC50 in assay [1] was found to be 13 µM; in assay [2] (setting [3]), 2.08 µM.

On to `Cc1cc(C)c(CNC(=O)c2cc(-c3ccc(N4CCN(C)CC4)nc3)cc(-c3ccnn3C)c2C)c(=O)[nH]1` [Example 149, N-[(4,6-dimethyl-2-oxo-1,2-dihydropyridin-3-yl)methyl]-2-methyl-5-[6-(4-methylpiperazin-1-yl)pyridin-3-yl]-3-(1-methyl-1H-pyrazol-5-yl)benzamide], for which the IC50 in assay [1] came out at 0.198 µM; in assay [2] (setting [3]), 0.0342 µM.

As for `Cc1cc(C)c(CNC(=O)c2ccnc(N3CCC[C@H]3C)c2Cl)c(=O)[nH]1` [Example 106, 3-chloro-N-[(4,6-dimethyl-2-oxo-1,2-dihydropyridin-3-yl)methyl]-2-[(2R)-2-methylpyrrolidin-1-yl]isonicotin-amide], the values for the IC50 in assay [1] and in assay [2] (setting [3]) were 86 µM and 19.8 µM, respectively.

With `Cc1cc(C)c(CNC(=O)c2nc(Cl)nc(N3CCC[C@@H]3C)c2C)c(=O)[nH]1` [Example 41, 2-chloro-N-[(4,6-dimethyl-2-oxo-1,2-dihydropyridin-3-yl)methyl]-5-methyl-6-[(2S)-2-methylpyrrolidin-1-yl]pyrimidine-4-carboxamide], the values for the IC50 in assay [1] and in assay [2] (setting [3]) were 7.81 µM and 1.1 µM, respectively.

For the compound `Cc1cc(C)c(CNC(=O)c2ncnc(N3CCN(C)C[C@@H]3C)c2C)c(=O)[nH]1` [Example 67, N-[(4,6-dimethyl-2-oxo-1,2-dihydropyridin-3-yl)methyl]-6-[(2S)-2,4-dimethylpipera-zin-1-yl]-5-methylpyrimi-dine-4-carboxamide], the figures for the IC50 in assay [1] and in assay [2] (setting [3]) were 23.5 µM and 4.93 µM, respectively.

On to `Cc1cc(C)c(CNC(=O)c2cc(-c3cnc(N4C[C@@H]5C[C@H]4CO5)nc3)cc(-c3c(C)cnn3C)c2C)c(=O)[nH]1` [Example 22, N-[(4,6-dimethyl-2-oxo-1,2-dihydropyridin-3-yl)methyl]-3-(1,4-dimethyl-1H-pyrazol-5-yl)-2-methyl-5-{2-[(1S,4S)-2-oxa-5-azabicyclo[2.2.1]hept-5-yl]pyrimidin-5-yl}benzamide], for which the IC50 turned out to be 0.75 µM in assay [1] and 0.027 µM in assay [2] (setting [3]).

Regarding `CNc1ncc(-c2cc(C(=O)NCc3c(C)cc(C)[nH]c3=O)c(C)c(-c3c(C)cnn3C)c2)cn1` [Example 15, N-[(4,6-dimethyl-2-oxo-1,2-dihydropyridin-3-yl)methyl]-3-(1,4-dimethyl-1H-pyrazol-5-yl)-2-methyl-5-[2-(methylamino)pyrimidin-5-yl]benzamide], the IC50 came to 0.3 µM in assay [1] and 0.035 µM in assay [2].

Turning to `Cc1cc(C)c(CNC(=O)c2cc(-c3cnc(N)nc3)cc(-c3ccnn3C)c2C)c(=O)[nH]1` [Example 16, 5-(2-aminopyrimidin-5-yl)-N-[(4,6-dimethyl-2-oxo-1,2-dihydropyridin-3-yl)methyl]-2-methyl-3-(1-methyl-1H-pyrazol-5-yl)benzamide], the IC50 in assay [1] came to 1.33 µM; in assay [2] (setting [3]), 0.084 µM.

With `Cc1cc(C)c(CNC(=O)c2ncnc(N3[C@@H](C)COC[C@@H]3C)c2C)c(=O)[nH]1` [Example 89, 6-[(3S,5S)-3,5-dimethylmorph-olin-4-yl]-N-[(4,6-dimethyl-2-oxo-1,2-dihydropyridin-3-yl)methyl]-5-methylpyrimi-dine-4-carboxamide], the IC50 in assay [1] stood at 82.4 µM; in assay [2] (setting [3]) it was 11 µM.

Consider `Cc1cc(C)c(CNC(=O)c2nc(Cl)nc(N3CCOC[C@@H]3C)c2C)c(=O)[nH]1` [Example 37, 2-chloro-N-[(4,6-dimethyl-2-oxo-1,2-dihydropyridin-3-yl)methyl]-5-methyl-6-[(3S)-3-methyl-morpholin-4-yl]pyrimidine-4-carboxamide], for which the values for the IC50 in assay [1] and in assay [2] (setting [3]) were 6.25 µM and 1.19 µM, respectively.

`CCn1ncc(C)c1-c1cccc(C(=O)NCc2c(C)c(Br)c(C)[nH]c2=O)c1C` [Example 147, N-[(5-bromo-4,6-dimethyl-2-oxo-1,2-dihydropyridin-3-yl)methyl]-3-(1-ethyl-4-methyl-1H-pyrazol-5-yl)-2-methylbenzamide]: the values for the half-inhibitory concentration (IC50) in assay [1] and in assay [2] (setting [3]) were > 200 µM and 178 µM, respectively.

For the compound `Cc1cc(C)c(CNC(=O)c2cc(-c3cnc(N4CC(F)C4)nc3)cc(-c3c(C)cnn3C)c2C)c(=O)[nH]1` [Example 24, N-[(4,6-dimethyl-2-oxo-1,2-dihydropyridin-3-yl)methyl]-3-(1,4-dimethyl-1H-pyrazol-5-yl)-5-[2-(3-fluoroazetidin-1-yl)pyrimidin-5-yl]-2-methylbenzamide], the figures for the IC50 in assay [1] and in assay [2] (setting [3]) were 0.55 µM and 0.022 µM, respectively.

Take `COCc1cc(C)[nH]c(=O)c1CNC(=O)c1cc(Cl)cc(-c2ccnn2C)c1C` [Example 50, 5-chloro-N-{[4-(methoxymeth-yl)-6-methyl-2-oxo-1,2-dihydropyridin-3-yl]methyl}-2-methyl-3-(1-methyl-1H-pyrazol-5-yl)benzamide]: the IC50 is 26.7 µM in assay [1] and 2.05 µM in assay [2] (setting [3]).

With `Cc1cc(C)c(CNC(=O)c2ncnc(N3CCN(c4ncccn4)C[C@@H]3C)c2C)c(=O)[nH]1` [Example 31, (S)—N-((4,6-dimethyl-2-oxo-1,2-dihydropyridin-3-yl)methyl)-5-methyl-6-(2-methyl-4-(pyrimidin-2-yl)piperazin-1-yl)pyrimidine-4-carboxamide], the IC50 in assay [1] stood at 1.31 µM; in assay [2] (setting [3]), 0.14 µM.

Consider `CCCc1cc(C)[nH]c(=O)c1CNC(=O)c1cc(-c2cnn(C)c2)cc(OC(C)C)c1Cl` [Example 27, 2-chloro-3-isopropoxy-N-[(6-methyl-2-oxo-4-propyl-1,2-dihydropyridin-3-yl)methyl]-5-(1-methyl-1H-pyrazol-4-yl)benzamide], for which the IC50 in assay [1] came out at 5.15 µM; in assay [2] (setting [3]), 0.29 µM.

For the compound `CCOc1cccc(C(=O)NCc2c(C)cc(C)[nH]c2=O)c1C` [Example 48, N-[(4,6-dimethyl-2-oxo-1,2-dihydropyridin-3-yl)methyl]-3-ethoxy-2-methyl-benzamide], the IC50 was 19.8 µM in assay [1] and 1.81 µM in assay [2] (setting [3]).

As to `Cc1cc(C)c(CNC(=O)c2cccc(-c3ccnn3C)c2C)c(=O)[nH]1` [Example 2, N-[(4,6-dimethyl-2-oxo-1,2-dihydropyridin-3-yl)methyl]-2-methyl-3-(1-methyl-1H-pyrazol-5-yl)benzamide], the IC50 in assay [1] was found to be 5.53 µM; in assay [2] (setting [3]) it was 0.34 µM.
